In ChEMBL document CHEMBL3507680, “University of Dundee, Gates Library screen for HepG2 cell viability”:

Experiment: Human HepG2 cell viability assay in 384 well format
Format: toxicity, cell-based
Set-up: dose 125 nL, time 70.5 hour; cytotoxicity at 70.5 h: concentration not given beside the values
Conditions: HepG2 cells, read-out: Inhibition

| SMILES | cytotoxicity at 70.5 h [%] |
| --- | --- |
| COC(=O)CN(C(=O)c1ccc(-n2ccnc2)cc1)C1CC1 | -1.73 |
| Cc1cc(N2CCC(c3nccn3Cc3cscn3)CC2)ccn1 | -3.14 |
| CS(=O)(=O)NC1CC(=O)N(c2ccccc2Cl)C1 (stereo not given) | -27 |
| O=C(c1ccc(-n2ccnc2)nn1)N1CCCC1CCc1ccccc1 (stereo not given) | -19.5 |
| CCOc1ccc(C(=O)NC2CCN(c3ncccn3)CC2)cc1C | -0.65 |
| Cc1nc(CN2C(=O)CC[C@@H]3[C@H]2CCN3C(=O)c2ccc[nH]2)cs1 | -7.13 |
| COCCn1c2c(ccc1=O)CC(NC(=O)c1cscn1)CC2 (stereo not given) | -4.76 |
| Cc1cnc(C)c(N2CCCC(CO)(Cc3cccc(Cl)c3)C2)n1 (stereo not given) | 21.2 |
| CCC1(c2ccc(NS(=O)(=O)N(C)C)cc2)CCC(=O)NC1=O (stereo not given) | -2.76 |
| CCN1CCN(C2CCN(Cc3ncc(C(C)(C)C)o3)CC2)C1=O | -8.55 |
| O=C(CCc1ccsc1)N1CCC(n2cc(CO)nn2)CC1 | -13.1 |
| CN(Cc1nc(-c2ccccc2)no1)C(=O)CNS(C)(=O)=O | -8.66 |
| O=C(NCc1cccc2cccnc12)N1CCC(n2cncn2)CC1 | -1.7 |
| CCN1CCCC1CN(CCN(C)C)S(=O)(=O)c1cccc(C#N)c1 (stereo not given) | -1.36 |
| CCOC1CCN(C(=O)c2ccc(-n3ncc(C#N)c3N)cc2)CC1 | -0.409 |
| CN(C)C(=O)N1CCc2c(CNc3ncccn3)cncc2C1 | -2.83 |
| CN(C)C(=O)CCCNc1ncc2c(n1)CCN2c1ccccc1 | -7.97 |
| CN(C)c1nccc(N(C)C2CCN(CC3CCOC3)CC2)n1 (stereo not given) | -4.93 |
| CCN1CCN(C(=O)c2ccc3c(c2)OCC(=O)N3)[C@H]2CS(=O)(=O)C[C@H]21 | -12.3 |
| c1coc(-c2nc(CN3CCCC(Cn4cncn4)C3)cs2)c1 (stereo not given) | 20.4 |
| CC(O)c1cccc(-n2c(CCC(=O)O)nc3ccccc32)c1 (stereo not given) | -8.25 |
| NC(=O)c1cccc(CN2CCOC(Cn3cccn3)C2)c1 (stereo not given) | 8.52 |
| COCCOCC(=O)NC(C#N)c1cc(Cl)cc(Cl)c1 (stereo not given) | 19.4 |

| SMILES | cytotoxicity at 70.5 h [%] |
| --- | --- |
| CCn1nc(C)c2ncnc(N(C)Cc3ccco3)c21 | -1.38 |
| Cc1cc(C)n(CC2CCN(CC(O)CN3CCOCC3)CC2)n1 (stereo not given) | -2.43 |
| CCC(CC)c1cc(C(=O)N2CCCC(n3cncn3)C2)on1 (stereo not given) | -1.84 |
| Cc1c(C(=O)NC(C)CC(=O)c2cccs2)cnn1C (stereo not given) | 19.6 |
| Cc1ncsc1C(=O)NCC1CCC2(CCNCC2)CO1 (stereo not given) | -6.8 |
| Cc1nn(C)c(C)c1CC(=O)N1CCCC(n2cccn2)C1 (stereo not given) | -2.45 |
| Cc1nc(C)c(C(=O)N2Cc3ccccc3OCC2CN(C)C)o1 (stereo not given) | 1.45 |
| CCS(=O)(=O)N1CCCN(CCCOC)CC1 | -6.15 |
| O=C1COc2ccc(S(=O)(=O)NCC3CCCO3)c3c2N1CCC3 (stereo not given) | 1.71 |
| COCc1cccc(CNc2cnn(C(C)(C)C)c(=O)c2Cl)c1 | 41 |
| CN(Cc1ccccc1)CC1(O)CCCN(CC(C)(C)C)C1=O (stereo not given) | -3.59 |
| Cc1noc(C(C)Nc2ccc3c(c2)CCC3)n1 (stereo not given) | 8.72 |
| CC(=O)NCC(=O)N1Cc2nccn2CC(CN(C)C(C)C)C1 (stereo not given) | -13.6 |
| Cc1cncnc1C1CCN(C(=O)CN(C)C)CC1 | -8.84 |
| CC1CN(Cc2cccc(CN)c2)CCO1 (stereo not given) | -9.2 |
| CC1CN(c2ccc(CNC(=O)NCCn3ccnc3)cn2)CCO1 (stereo not given) | -16.7 |
| NC(=O)CN1CCC(Nc2ccnc3ccc(Cl)cc23)CC1 | -1.05 |
| Nc1cc(CCC2CN(Cc3ccc(C(=O)O)cc3)CCO2)ccn1 (stereo not given) | 23.8 |
| COc1cc(N2CC[C@H]3O[C@@H](C(=O)NC4CCCC4)CC[C@H]32)ncn1 | -9.02 |
| CCC[C@@H]1CN(Cc2nnc(-c3cccnc3)o2)C[C@H]1NC(C)=O | -7.21 |
| Cc1ncsc1CN1C[C@@H]2CCCO[C@@H]2[C@H](N(C)C(C)C)C1 | -4.74 |
| CC(O)(CN1CCC(O)CC1)c1cccc(C(F)(F)F)c1 (stereo not given) | -14.5 |
